Measurements taken from ChEMBL document CHEMBL1201862, “PubChem BioAssay data set” (2004).
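Step 1: Grow cells in 96-well plates. Step 2: Expose to compound for 48 hours at 5 concentrations. Step 3: Interpolate endpoints linearly; if unreached, use highest concentration. The concentration for 50% growth inhibition is given as GI50.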 Activity calls are given as the source filed them. Rule as the data show it: active = GI50 up to about 1.1 µM and inactive = higher.

Assays:
Test in all cases: NCI tumour cell line growth inhibition, 48 h
CAKI-1 = tested on: CAKI-1
HCC 2998 = tested on: HCC 2998
HOP-92 = tested on: HOP-92
Malme-3M = tested on: Malme-3M
NCI-H226 = tested on: NCI-H226
NCI-H460 = tested on: NCI-H460
OVCAR-3 = tested on: OVCAR-3
OVCAR-4 = tested on: OVCAR-4
SF-268 = tested on: SF-268
SF-539 = tested on: SF-539
SNB-75 = tested on: SNB-75
SR = tested on: SR
TK-10 = tested on: TK-10
UO-31 = tested on: UO-31
A498 = tested on: A498
CCRF-CEM = tested on: CCRF-CEM

SMILES | GI50 (CAKI-1) | GI50 (HCC 2998) | GI50 (HOP-92) | GI50 (Malme-3M) | GI50 (NCI-H226) | GI50 (NCI-H460) | GI50 (OVCAR-3) | GI50 (OVCAR-4) | GI50 (SF-268) | GI50 (SF-539) | GI50 (SNB-75) | GI50 (SR) | GI50 (TK-10) | GI50 (UO-31) | GI50 (A498) | GI50 (CCRF-CEM)
Cc1ccc(NC(=O)CC2SC(=N)NC2=O)cc1C (stereo not drawn) | > 100 µM (inactive) | 75 µM (inactive) | > 100 µM (inactive) | > 100 µM (inactive) | > 100 µM (inactive) | > 100 µM (inactive) | > 100 µM (inactive) | > 100 µM (inactive) | > 100 µM (inactive) | > 100 µM (inactive) | > 100 µM (inactive) | > 100 µM (inactive) | > 100 µM (inactive) | > 100 µM (inactive) |  | 
CN(C)/C=N/c1nc2ncn(CCOC(=O)c3ccccc3)c2c(=O)[nH]1 | > 100 µM (inactive) |  | > 100 µM (inactive) | > 100 µM (inactive) | > 100 µM (inactive) | > 100 µM (inactive) | > 100 µM (inactive) | > 100 µM (inactive) | > 100 µM (inactive) | > 100 µM (inactive) | > 100 µM (inactive) | > 100 µM (inactive) | > 100 µM (inactive) | > 100 µM (inactive) | > 100 µM (inactive) | > 100 µM (inactive)
Brc1ccc(N2C[N+](c3ccc(Br)cc3)=NC(c3ccccc3)=N2)cc1 | 18.1 µM (inactive) | 15.4 µM (inactive) | 18.7 µM (inactive) | 16.7 µM (inactive) | 27.2 µM (inactive) | 13.6 µM (inactive) |  | 19.5 µM (inactive) | 18.3 µM (inactive) | 15.8 µM (inactive) | 26.1 µM (inactive) |  | 19.5 µM (inactive) | 14.5 µM (inactive) | 18.3 µM (inactive) | 
COc1ccc(C2c3cc(OC)c(OC)cc3C(Cc3ccc([N+](=O)[O-])cc3)C2c2ccc([N+](=O)[O-])cc2)cc1OC (stereo not drawn) | > 100 µM (inactive) | > 100 µM (inactive) | 0.879 µM (active) | > 100 µM (inactive) | > 100 µM (inactive) | > 100 µM (inactive) | > 100 µM (inactive) | > 100 µM (inactive) | > 100 µM (inactive) | > 100 µM (inactive) | 49.7 µM (inactive) |  | > 100 µM (inactive) | 59.6 µM (inactive) | > 100 µM (inactive) | > 100 µM (inactive)
Cc1nnc(N/N=C2/C(=O)Nc3c(Cl)cc(Cl)cc32)n1N | 81.1 µM (inactive) | > 100 µM (inactive) | > 100 µM (inactive) | > 100 µM (inactive) | > 100 µM (inactive) | > 100 µM (inactive) | > 100 µM (inactive) | > 100 µM (inactive) | > 100 µM (inactive) | > 100 µM (inactive) |  | 73.8 µM (inactive) | > 100 µM (inactive) | > 100 µM (inactive) | > 100 µM (inactive) | 57.5 µM (inactive)
CN1Cc2c(nc(-c3ccc(Br)cc3)c[n+]2[O-])N(C)C1 | > 100 µM (inactive) |  | > 100 µM (inactive) | > 100 µM (inactive) | > 100 µM (inactive) | > 100 µM (inactive) | > 100 µM (inactive) | > 100 µM (inactive) | > 100 µM (inactive) | > 100 µM (inactive) | > 100 µM (inactive) | > 100 µM (inactive) |  | > 100 µM (inactive) | > 100 µM (inactive) | > 100 µM (inactive)
CC(=O)OCC1OC(N2C(=O)[C@@H](Oc3ccccc3)[C@H]2/C=C/c2ccccc2)C(OC(C)=O)C(OC(C)=O)C1OC(C)=O (stereo partly drawn) |  | > 100 µM (inactive) | 44.5 µM (inactive) | > 100 µM (inactive) | > 100 µM (inactive) | > 100 µM (inactive) | > 100 µM (inactive) | > 100 µM (inactive) | 72.4 µM (inactive) | > 100 µM (inactive) | 31.1 µM (inactive) | > 100 µM (inactive) | > 100 µM (inactive) | > 100 µM (inactive) | 72.4 µM (inactive) | > 100 µM (inactive)
O=C(c1ccc(Cl)cc1Cl)C1[C@H]2C(=O)N(c3ccc(Cc4ccc(N5C(=O)[C@@H]6ON(c7ccccc7)C(C(=O)c7ccc(Cl)cc7Cl)[C@@H]6C5=O)cc4)cc3)C(=O)[C@H]2ON1c1ccccc1 (stereo partly drawn) | > 50 µM (inactive) | > 50 µM (inactive) |  | > 50 µM (inactive) | > 50 µM (inactive) | > 50 µM (inactive) | > 50 µM (inactive) | > 50 µM (inactive) | > 50 µM (inactive) | > 50 µM (inactive) | > 50 µM (inactive) | > 50 µM (inactive) | > 50 µM (inactive) | > 50 µM (inactive) | > 50 µM (inactive) | > 50 µM (inactive)
COc1ccc(CCC2c3cc(OC)c(OC)cc3CCN2C)cc1OC (stereo not drawn) | > 100 µM (inactive) | > 100 µM (inactive) | 46 µM (inactive) | > 100 µM (inactive) | > 100 µM (inactive) | > 100 µM (inactive) | > 100 µM (inactive) | > 100 µM (inactive) | > 100 µM (inactive) | > 100 µM (inactive) | > 100 µM (inactive) | > 100 µM (inactive) | > 100 µM (inactive) | > 100 µM (inactive) |  | > 100 µM (inactive)
CC1C=C(CCCCCCCCCCCC[C@@H](O)[C@@H]2CC[C@@H]([C@@H]3CC[C@@H](C(O)CCCCCCCCCCCCC4=C[C@H](C)OC4=O)O3)O2)C(=O)O1 (stereo partly drawn) | > 100 µM (inactive) | > 100 µM (inactive) | 21.9 µM (inactive) | > 91.2 µM (inactive) | 31 µM (inactive) | 0.881 µM (active) | 23 µM (inactive) |  | > 47.5 µM (inactive) | 3.23 µM (inactive) | > 80 µM (inactive) |  | > 100 µM (inactive) | 6.67 µM (inactive) | 75.7 µM (inactive) | 5.36 µM (inactive)
COC(=O)CC1C[C@H](C#N)N(C(=O)c2ccccc2)C[C@@H]1CC[N+](=O)[O-] (stereo partly drawn) |  | > 100 µM (inactive) | > 100 µM (inactive) | > 100 µM (inactive) |  | > 100 µM (inactive) | > 100 µM (inactive) | > 100 µM (inactive) | > 100 µM (inactive) | > 100 µM (inactive) | > 100 µM (inactive) | > 100 µM (inactive) | > 100 µM (inactive) | > 100 µM (inactive) | > 100 µM (inactive) | > 100 µM (inactive)
CCN(CC)C(=S)S [DITIOCARB SODIUM] |  | 33.6 µM (inactive) | > 76.6 µM (inactive) | 19.1 µM (inactive) | > 100 µM (inactive) | 0.373 µM (active) |  |  | > 79.1 µM (inactive) | > 60.4 µM (inactive) | 0.261 µM (active) | 0.0354 µM (active) | > 100 µM (inactive) | > 100 µM (inactive) |  | 0.0443 µM (active)
COCC(O)Cn1ccnc1[N+](=O)[O-] (stereo not drawn) [MISONIDAZOLE] | > 100 µM (inactive) | > 100 µM (inactive) |  | > 100 µM (inactive) | > 100 µM (inactive) | > 100 µM (inactive) | > 100 µM (inactive) |  | > 100 µM (inactive) | > 100 µM (inactive) |  | > 100 µM (inactive) | > 100 µM (inactive) | > 100 µM (inactive) |  | > 100 µM (inactive)
